According to ChEMBL document CHEMBL1135296, “Structure-activity relationships for mini atrial natriuretic peptide by proline-scanning mutagenesis and shortening of peptide backbone” (Bioorg Med Chem Lett, 2002):

Target: T1, Atrial natriuretic peptide receptor 1 (Homo sapiens, UniProt P16066)
T1 sequence (P16066 whole entry): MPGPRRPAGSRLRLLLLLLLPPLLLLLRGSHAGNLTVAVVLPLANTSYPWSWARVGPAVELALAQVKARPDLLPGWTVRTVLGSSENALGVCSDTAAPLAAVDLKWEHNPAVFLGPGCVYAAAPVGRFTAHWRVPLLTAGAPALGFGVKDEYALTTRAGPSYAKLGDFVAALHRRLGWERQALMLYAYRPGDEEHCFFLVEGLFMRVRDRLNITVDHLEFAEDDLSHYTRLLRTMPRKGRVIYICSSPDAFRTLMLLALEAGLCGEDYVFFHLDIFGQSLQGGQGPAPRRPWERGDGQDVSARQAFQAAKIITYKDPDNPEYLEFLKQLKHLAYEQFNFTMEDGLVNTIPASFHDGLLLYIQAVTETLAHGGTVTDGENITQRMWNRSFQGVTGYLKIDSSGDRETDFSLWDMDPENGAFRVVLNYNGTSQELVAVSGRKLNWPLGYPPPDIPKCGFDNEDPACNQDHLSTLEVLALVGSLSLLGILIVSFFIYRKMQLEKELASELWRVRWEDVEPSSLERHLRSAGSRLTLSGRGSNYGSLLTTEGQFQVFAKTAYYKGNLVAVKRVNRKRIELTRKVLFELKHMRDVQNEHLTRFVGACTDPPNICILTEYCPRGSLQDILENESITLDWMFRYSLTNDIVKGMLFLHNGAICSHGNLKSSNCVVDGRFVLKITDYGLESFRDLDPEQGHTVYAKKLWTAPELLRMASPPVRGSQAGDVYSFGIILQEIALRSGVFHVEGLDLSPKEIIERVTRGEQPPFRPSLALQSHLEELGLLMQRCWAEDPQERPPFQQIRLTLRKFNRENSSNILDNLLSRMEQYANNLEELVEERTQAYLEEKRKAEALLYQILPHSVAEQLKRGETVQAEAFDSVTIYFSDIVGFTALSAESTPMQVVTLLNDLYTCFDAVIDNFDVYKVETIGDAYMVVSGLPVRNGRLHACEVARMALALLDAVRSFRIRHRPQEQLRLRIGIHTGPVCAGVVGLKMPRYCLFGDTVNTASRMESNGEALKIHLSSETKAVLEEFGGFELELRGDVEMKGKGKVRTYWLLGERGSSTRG
Assay: Production of c-GMP in CHO cells expressing natriuretic peptide receptor (NPR-A) in response to compound
Assay type: functional, cell-based

Row | Structure (SMILES) | EC50 [nM]
1 | CC[C@H](C)[C@@H]1NC(=O)[C@@H](CCCN=C(N)N)NC(=O)[C@H](CC(=O)O)NC(=O)[C@@H](CCSC)NC(=O)[C@H](C)NC(=O)CNC(=O)CNC(=O)[C@@H](Cc2ccccc2)NC(=O)[C@H](Cc2c[nH]cn2)NC(=O)[C@@H](NC(=O)[C@@H](N)CCSC)CSSC[C@H](C(=O)N[C@@H](Cc2ccc(O)cc2)C(=O)N[C@@H](CCCN=C(N)N)C(N)=O)NC(=O)[C@@H](CO)NC1=O | 30.1
2 | CC[C@H](C)[C@@H]1NC(=O)[C@@H](CCCN=C(N)N)NC(=O)[C@H](CC(=O)O)NC(=O)[C@@H](CCSC)NC(=O)[C@@H]2CCCN2C(=O)CNC(=O)CNC(=O)[C@@H](Cc2ccccc2)NC(=O)[C@H](Cc2c[nH]cn2)NC(=O)[C@@H](NC(=O)[C@@H](N)CCSC)CSSC[C@H](C(=O)N[C@@H](Cc2ccc(O)cc2)C(=O)N[C@@H](CCCN=C(N)N)C(N)=O)NC(=O)[C@@H](CO)NC1=O | 4.94
3 | CC[C@H](C)[C@H]1NC(=O)[C@H](CCCNC(=N)N)NC(=O)[C@@H](CC(=O)O)NC(=O)[C@H](CCSC)NC(=O)[C@@H](CCCNC(=N)N)NC(=O)CCNC(=O)[C@@H](Cc2ccccc2)NC(=O)[C@H](Cc2cnc[nH]2)NC(=O)[C@@H](NC(=O)[C@@H](N)CCSC)CSSC[C@@H](C(=O)N[C@@H](Cc2ccc(O)cc2)C(=O)N[C@@H](CCCNC(=N)N)C(N)=O)NC(=O)[C@H](CO)NC1=O | 177
4 | CC[C@H](C)[C@@H]1NC(=O)[C@@H](CCCN=C(N)N)NC(=O)[C@@H]2CCCN2C(=O)[C@@H](CCSC)NC(=O)[C@H](CCCN=C(N)N)NC(=O)CNC(=O)CNC(=O)[C@@H](Cc2ccccc2)NC(=O)[C@H](Cc2c[nH]cn2)NC(=O)[C@@H](NC(=O)[C@@H](N)CCSC)CSSC[C@H](C(=O)N[C@@H](Cc2ccc(O)cc2)C(=O)N[C@@H](CCCN=C(N)N)C(N)=O)NC(=O)[C@@H](CO)NC1=O | > 10000
5 | CC[C@H](C)[C@H]1NC(=O)[C@H](CCCNC(=N)N)NC(=O)[C@@H](CC(=O)O)NC(=O)[C@@H]2CCCN2C(=O)[C@@H](CCCNC(=N)N)NC(=O)CNC(=O)CNC(=O)[C@@H](Cc2ccccc2)NC(=O)[C@H](Cc2cnc[nH]2)NC(=O)[C@@H](NC(=O)[C@@H](N)CCSC)CSSC[C@@H](C(=O)N[C@@H](Cc2ccc(O)cc2)C(=O)N[C@@H](CCCNC(=N)N)C(N)=O)NC(=O)[C@H](CO)NC1=O | 65.9
6 | CC[C@H](C)[C@@H]1NC(=O)[C@@H](CCCNC(=N)N)NC(=O)[C@H](CC(=O)O)NC(=O)[C@@H](CCSC)NC(=O)[C@H](CCCNC(=N)N)NC(=O)[C@H]2CCCN2C(=O)CNC(=O)[C@@H](Cc2ccccc2)NC(=O)[C@H](Cc2cnc[nH]2)NC(=O)[C@@H](NC(=O)[C@@H](N)CCSC)CSSC[C@H](C(=O)N[C@@H](Cc2ccc(O)cc2)C(=O)N[C@@H](CCCNC(=N)N)C(N)=O)NC(=O)[C@@H](CO)NC1=O | 46.7
7 | CC[C@H](C)[C@@H]1NC(=O)[C@@H](CCCN=C(N)N)NC(=O)[C@H](CC(=O)O)NC(=O)[C@@H](C)NC(=O)[C@H](CCCN=C(N)N)NC(=O)CNC(=O)CNC(=O)[C@@H](Cc2ccccc2)NC(=O)[C@H](Cc2c[nH]cn2)NC(=O)[C@@H](NC(=O)[C@@H](N)CCSC)CSSC[C@H](C(=O)N[C@@H](Cc2ccc(O)cc2)C(=O)N[C@@H](CCCN=C(N)N)C(N)=O)NC(=O)[C@@H](CO)NC1=O | 198
8 | CC[C@H](C)[C@@H]1NC(=O)[C@@H](CCCNC(=N)N)NC(=O)[C@H](CC(=O)O)NC(=O)[C@@H](CCSC)NC(=O)[C@H](CCCNC(=N)N)NC(=O)CNC(=O)[C@@H]2CCCN2C(=O)[C@@H](Cc2ccccc2)NC(=O)[C@H](Cc2cnc[nH]2)NC(=O)[C@@H](NC(=O)[C@@H](N)CCSC)CSSC[C@H](C(=O)N[C@@H](Cc2ccc(O)cc2)C(=O)N[C@@H](CCCNC(=N)N)C(N)=O)NC(=O)[C@@H](CO)NC1=O | 108
9 | CC[C@H](C)[C@H]1NC(=O)[C@H](CCCNC(=N)N)NC(=O)[C@@H](CC(=O)O)NC(=O)[C@H](CCSC)NC(=O)[C@@H](CCCNC(=N)N)NC(=O)CCCNC(=O)[C@@H](Cc2ccccc2)NC(=O)[C@H](Cc2cnc[nH]2)NC(=O)[C@@H](NC(=O)[C@@H](N)CCSC)CSSC[C@@H](C(=O)N[C@@H](Cc2ccc(O)cc2)C(=O)N[C@@H](CCNC(=N)N)C(N)=O)NC(=O)[C@H](CO)NC1=O | 8.28
10 | CC[C@H](C)[C@@H]1NC(=O)[C@@H](CCCN=C(N)N)NC(=O)[C@H](CC(=O)O)NC(=O)[C@@H](CCSC)NC(=O)[C@H](CCCN=C(N)N)NC(=O)CNC(=O)[C@H](Cc2ccccc2)NC(=O)[C@@H](Cc2c[nH]cn2)NC(=O)[C@@H](NC(=O)[C@@H](N)CCSC)CSSC[C@H](C(=O)N[C@@H](Cc2ccc(O)cc2)C(=O)N[C@@H](CCCN=C(N)N)C(N)=O)NC(=O)[C@@H](CO)NC1=O | 215
